Biological target: T1, LGR5 (Homo sapiens, UniProt O75473)
T1 construct: purchased Promega (in-house HiBiT-GPCR construct library, NanoBRET)
T1 sequence (O75473 22-907): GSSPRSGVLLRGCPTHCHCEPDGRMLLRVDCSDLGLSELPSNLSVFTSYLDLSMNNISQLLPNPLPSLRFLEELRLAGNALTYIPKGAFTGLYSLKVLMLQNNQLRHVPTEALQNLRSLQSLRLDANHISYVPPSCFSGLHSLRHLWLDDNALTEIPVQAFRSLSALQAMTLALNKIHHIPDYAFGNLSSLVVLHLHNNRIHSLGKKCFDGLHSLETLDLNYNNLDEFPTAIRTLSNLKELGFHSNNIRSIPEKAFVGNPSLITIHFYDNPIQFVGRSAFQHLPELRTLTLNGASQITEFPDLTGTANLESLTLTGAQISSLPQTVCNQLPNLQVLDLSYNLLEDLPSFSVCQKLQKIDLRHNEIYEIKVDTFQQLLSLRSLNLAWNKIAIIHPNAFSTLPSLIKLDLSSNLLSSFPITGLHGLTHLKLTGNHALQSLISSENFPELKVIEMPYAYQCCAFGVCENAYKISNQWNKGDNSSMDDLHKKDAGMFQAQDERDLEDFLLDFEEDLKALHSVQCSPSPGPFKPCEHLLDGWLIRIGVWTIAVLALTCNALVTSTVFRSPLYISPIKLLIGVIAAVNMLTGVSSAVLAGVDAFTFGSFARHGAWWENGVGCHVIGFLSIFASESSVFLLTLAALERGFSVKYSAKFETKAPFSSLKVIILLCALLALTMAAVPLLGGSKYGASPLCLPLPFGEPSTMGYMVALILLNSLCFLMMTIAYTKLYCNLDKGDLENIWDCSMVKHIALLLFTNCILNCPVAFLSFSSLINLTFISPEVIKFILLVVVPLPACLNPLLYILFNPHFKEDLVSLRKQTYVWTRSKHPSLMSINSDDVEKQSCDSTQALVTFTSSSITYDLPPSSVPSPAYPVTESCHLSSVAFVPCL
Assay: NanoBRET screen HiBiT-LGR5 in HEK293
Type: binding
Experimental: Each tracer candidate was screened across the entire library of HiBiT-GPCR constructs using NanoBRET as the detection modality. As depicted in Figure 4A, the specificity of interactions was evaluated through decrease in BRET due to competitive displacement of a bound tracer by excess parental compound. Each tracer was analyzed for binding to each HiBiT-GPCR fusion in the absence and in the presence of competing parental compound. Briefly, HEK293 cells were transfected with HiBiT-GPCR constructs diluted into promoterless DNA to reduce expression and maximize translocation to the cell surface. Each tracer candidate was then screened at concentrations of 1 μM and 0.1 μM across cells expressing these fusions. Cells were treated for 1.5 h with tracer either alone or in the presence of 20 μM competing parental compound (i.e., control). BRET was measured upon addition of purified LgBiT and subsequent complementation with HiBiT genetically fused to a GPCR. The specificity of interactions was assessed through a decrease in BRET signal due to competitive displacement of the bound tracer. To further gauge the robustness of these interactions, the fold response over the control (i.e., BRETtracer/BRETcontrol) was calculated. We chose a 1.5-fold response, which translates to ≥7-fold signal over noise as the minimal threshold required to score an interaction as positive.
HiBiT-GPCR DNA constructs were diluted in 10 mM Tris pH 8 to a final concentration of 0.01 μg/μL, arrayed in 96-well plates and stored at −20 °C. For transfection, HEK293 cells were suspended in Opti-MEM (without phenol red) supplemented with 2% fetal bovine serum (Seradigm) and 100 units/mL penicillin–streptomycin (Gibco) at a final concentration of 220,000 cells/mL and dispensed into white 96-well plates at 90 μL/well. Subsequent transfections and screens were carried using an Agilent Bravo Automated Liquid Handling Platform. First, the 96-well HiBiT DNA arrays were diluted 25-fold in Opti-MEM (without serum or phenol red) to a final concentration of 0.0004 μg/μL and 20 μL of the diluted DNAs were transferred into new 96-well plates. Next, promoterless carrier DNA (1 μg/μL) was diluted 25-fold (0.04 μg/μL) and then dispensed into the diluted arrays at 20 μL/well. Following brief mixing, Viafect transfection reagent (Promega) diluted 16-fold into Opti-MEM was dispensed into the plates at 40 μL/well. After mixing by pipetting, plates were incubated for 10 min on the pipetting station deck. The DNA-transfection reagent complexes were then added to plates containing cells. To facilitate the screen, 10 μL of DNA-transfection reagent complexes were added in duplicates to the top 4 and bottom 4 rows, resulting in two identical 48-well arrays per plate. Plates with transfected cells were incubated for 18–20 h at 37 °C/5% CO2. A screen of each tracer across the entire library using two different concentrations requires duplicate plates of transfected cells. Depending on the number of tracers being screened, transfections can be scaled up using the same ratios. The next day, for each tracer, four 20× screening solutions in tracer dilution buffer (Promega) were prepared: two duplicates at final concentration of 20 μM and two duplicates at a final concentration of 2 μM. […] The four resulting solutions were diluted 4-fold in Opti-MEM without serum or phenol red to generate 5× solutions (5 µM and 0.5 µM tracer +/− 100 μM competing compound). To screen the library, a BioTek MultiFlo FX liquid dispenser was used to dispense 22.5 µL of tracer solution to the top 4 rows and 22.5 µL tracer + competing compound solution to the 4 bottom rows. Plates were briefly mixed on an orbital shaker and incubated for 1.5 h at room temperature. […] Plates were briefly mixed on an orbital shaker and incubated for 15 min to allow complementation.

| SMILES | NanoBRET Fold Response (LGR5, tracer 0.1μM) | NanoBRET Fold Response (LGR5, tracer 1μM) | other results |
| --- | --- | --- | --- |
| CN1CCN(C2=Nc3cc(Cl)ccc3Nc3ccc(CNC(=O)CCOCCOCCOCCOCCNC(=O)CCc4ccc5n4[B-](F)(F)[N+]4=C(c6ccc[nH]6)C=CC4=C5)cc32)CC1 [Clozapine-b-2-NB590] | – | – | NanoBRET Fold Response (LGR5, 0.1μM tracer): 0.95 |
| CN(C)CCC=C1c2ccccc2CCc2ccc(C(=O)NCCNC(=O)CCOCCOCCOCCOCCNC(=O)CCc3ccc4n3[B-](F)(F)[N+]3=C(c5ccc[nH]5)C=CC3=C4)cc21 [Amitriptyline-b-2-NB590] | – | – | NanoBRET Fold Response (tracer at 0.1μM, listed as amitriptyline-b-2-NB590): 1.19; NanoBRET Fold Response (tracer at 1μM, listed as amitriptyline-b-2-NB590): 1.19 |
| CCOC(=O)c1cc(C#N)c(N2CCC(C(=O)NS(=O)(=O)Cc3ccccc3/C=C/C(=O)NCCNC(=O)CCc3ccc4n3[B-](F)(F)[N+]3=C(c5ccc[nH]5)C=CC3=C4)CC2)nc1C [AZD1283-1-NB590] | – | – | NanoBRET Fold Response (LGR5, 0.1μM): 0.86; NanoBRET Fold Response (LGR5, 1μM): 0.91 |
| CC(C)N(CC[C@H](c1ccccc1)c1cc(CCNC(=O)CCOCCOCCOCCOCCNC(=O)CCc2ccc3n2[B-](F)(F)[N+]2=C(c4ccc[nH]4)C=CC2=C3)ccc1O)C(C)C [Tolterodine-2-NB590] | 0.91 | 0.71 | – |
| CC(C)N(CC[C@H](c1ccccc1)c1cc(CCNC(=O)c2ccc(CNC(=O)CCc3ccc4n3[B-](F)(F)[N+]3=C(c5ccc[nH]5)C=CC3=C4)cc2)ccc1O)C(C)C [Tolterodine-BZ-NB590] | 0.91 | 0.89 | – |
| O=C(CCOCCOCCOCCOCCNC(=O)CCc1ccc2n1[B-](F)(F)[N+]1=C(c3ccc[nH]3)C=CC1=C2)NCCCN1CCN(C2=Nc3ccccc3Oc3ccc(Cl)cc32)CC1 [Loxapine-a-2-NB590] | 0.94 | 0.97 | – |
| CN1CCN(C2=Nc3cc(Cl)ccc3N(CC(=O)NCCOCCOCCOCCOCCNC(=O)CCc3ccc4n3[B-](F)(F)[N+]3=C(c5ccc[nH]5)C=CC3=C4)c3ccccc32)CC1 [Clozapine-c-2-NB590] | – | – | NanoBRET Fold Response (LGR5, 1μM tracer): 0.83 |
| CN(C)CCC=C1c2ccccc2CCc2ccc(C(=O)NCCNC(=O)CCOCCOCCOCCOCCNC(=O)CCc3ccc4n3[B-](F)(F)[N+]3=C(c5ccc[nH]5)C=CC3=C4)cc21 [Amitriptyline-a-2-NB590] | – | – | NanoBRET Fold Response (tracer at 0.1μM): 0.91; NanoBRET Fold Response (tracer at 1μM): 1.02 |
| Cc1nc2n(c(=O)c1CCN1CCC(c3noc4cc(F)ccc34)CC1)CCCC2OC(=O)NCCOCCOCCOCCOCCNC(=O)CCc1ccc2n1[B-](F)(F)[N+]1=C(c3ccc[nH]3)C=CC1=C2 (stereo not drawn) [Risperidone-2-NB590] | 1.07 | 1.18 | – |
| COc1ccc2[nH]c(-c3ccc(CNC(=O)CCOCCOCCOCCOCCNC(=O)CCc4ccc5n4[B-](F)(F)[N+]4=C(c6ccc[nH]6)C=CC4=C5)cc3)c(CCNC(C)=O)c2n1 [AzomelatoninICO9-2-NB590] | – | – | NanoBRET Fold Response (0.1μM tracer): 1.35; NanoBRET Fold Response (1μM tracer): 0.94 |
| COc1ccccc1N1CCN(CCCCN2C(=O)c3ccc(CNC(=O)CCOCCOCCOCCOCCNC(=O)CCc4ccc5n4[B-](F)(F)[N+]4=C(c6ccc[nH]6)C=CC4=C5)cc3C2=O)CC1 [NAN-190-2-NB590] | 1.22 | 0.83 | – |
| O=C(CCc1ccc2n1[B-](F)(F)[N+]1=C(c3ccc[nH]3)C=CC1=C2)NCCOCCOCCNC(=O)OCCOCCN1CCN(C2=Nc3ccccc3Sc3ccccc32)CC1 [Quetiapine-a-2-NB590] | 1.02 | 0.78 | – |
| O=C(CCOCCOCCOCCOCCNC(=O)CCc1ccc2n1[B-](F)(F)[N+]1=C(c3ccc[nH]3)C=CC1=C2)NCCCN1CCN(C2=Nc3cc(Cl)ccc3Nc3ccccc32)CC1 [Clozapine-a-2-NB590] | – | – | NanoBRET Fold Response (LGR5, 0.1μM tracer): 0.94; NanoBRET Fold Response (LGR5, 1μM tracer): 0.79 |
| N#CN=C(NCCCOc1cccc(CN2CCCCC2)c1)NCCNC(=O)CCOCCOCCOCCOCCNC(=O)CCc1ccc2n1[B-](F)(F)[N+]1=C(c3ccc[nH]3)C=CC1=C2 [Aminopotentidine-2-NB590] | 0.79 | 1.15 | – |
| O=C(CCc1ccc2n1[B-](F)(F)[N+]1=C(c3ccc[nH]3)C=CC1=C2)NCc1ccc(C(=O)NCCOCCOCCNCC(O)COc2cccc3ccccc23)cc1 (stereo not drawn) [Propranolol-3-NB590] | – | – | NanoBRET Fold Response (LGR5, 0.1μM): 1.10; NanoBRET Fold Response (LGR5, 1μM): 0.93 |
| O=C(CCc1ccc2n1[B-](F)(F)[N+]1=C(c3ccc[nH]3)C=CC1=C2)NCc1ccc(C(=O)NCCOCCC(=O)N[C@@H]2CC[C@@]3(O)[C@H]4Cc5ccc(O)c6c5[C@@]3(CCN4CC3CC3)[C@H]2O6)cc1 [Naltrexone-3-NB590] | 0.41 | 1.33 | – |
| COc1ccccc1N1CCN(CCCCN2C(=O)c3ccc(CNC(=O)CCOCCNC(=O)c4ccc(CNC(=O)CCc5ccc6n5[B-](F)(F)[N+]5=C(c7ccc[nH]7)C=CC5=C6)cc4)cc3C2=O)CC1 [NAN-190-3-NB590] | 1.30 | 0.72 | – |
| Cc1cc2c(s1)Nc1ccccc1N=C2N1CCN(CCCNC(=O)CCOCCOCCOCCOCCNC(=O)CCc2ccc3n2[B-](F)(F)[N+]2=C(c4ccc[nH]4)C=CC2=C3)CC1 [Olanzapine-a-2-NB590] | 0.91 | 0.81 | – |
| CCCn1c(=O)c2[nH]c(-c3ccc(OCC(=O)NCCNC(=O)CCOCCNC(=O)c4ccc(CNC(=O)CCc5ccc6n5[B-](F)(F)[N+]5=C(c7ccc[nH]7)C=CC5=C6)cc4)cc3)nc2n(CCC)c1=O [XAC-3-NB590] | 0.95 | 0.89 | – |
| CN(CCC=C1c2ccccc2CCc2ccccc21)C(=O)CCOCCOCCOCCOCCNC(=O)CCc1ccc2n1[B-](F)(F)[N+]1=C(c3ccc[nH]3)C=CC1=C2 [Amitriptyline-e-2-NB590] | – | – | NanoBRET Fold Response (tracer at 1μM): 0.85 |
| COc1ccc2c(n1)c(CCNC(C)=O)cn2CCNC(=O)CCc1ccc2n1[B-](F)(F)[N+]1=C(c3ccc[nH]3)C=CC1=C2 [Azamelatonin-1-NB590] | – | – | NanoBRET Fold Response (0.1μM tracer): 0.96; NanoBRET Fold Response (1μM tracer): 0.96 |

— PMC8151276, “An Integrated Approach toward NanoBRET Tracers for Analysis of GPCR Ligand Engagement” (Molecules, 2021)
